Test results published in patent US10946024B2, “Method for treating cancer” (Epizyme, Inc., priority 2014, dated 2021).
Entries after “also recorded” stand apart in the source; their conditions may differ.

Experiments:
HS-SY-II cells = experiment: Adherent cell line long-term (14-day) proliferation assay, CellTiter-Glo; assay type: cell-based, human; details: 14-day long-term proliferation assay
Method: (§1) 96-well plating for 7 day assay: For each adherent cell line, plated cells in a volume of 100 μL in 96-well plates, to be treated in triplicate, either in the evening (to treat with compound the following day) or in morning (to treat with compound in the evening), to allow cells to attach to plates before compound treatment.
(§2) 6-well plates to be split for 7-14 day assay: Plated 2 mL of cells at the correct density in each well of the 6-well plate. Calculated the correct density from the 96-well plate growth curve by multiplying the 96-well density by 30. The factor 30 came from growth area of the 6-well plate divided by the growth area of the 96-well plate (9.5 cm^2/0.32 cm^2=29.7, rounded up to 30), which corresponds to 30-fold more surface area in a 6-well vs. a 96-well plate.
(§3) Day 0: Treated with compound or DMSO by removing media and adding back either 100 μL (for 96-well plate) or 2 mL (for 6-well plate) media with the correct dilutions of compound/DMSO. Table 1 includes an example of 96-well plate map. Plates were incubated for 96 hours.
(§4) Read one 96-well plate with CellTiter-Glo® for a Day 0 reading (media change not necessary for this plate).
(§5) Day 4: Read one 96-well plate with CellTiter-Glo® for a Day 4 reading (media change not necessary for this plate before reading). Replaced media with fresh media containing compound on Day 4 in 96-well plates and 6-well plates.
(§6) Day 7: read final 96-well plate with CellTiter-Glo®.
(§7) Counted individual wells of 6-well plates, and replated cells to initial plating density in 96-well plates, as described above.
(§8) Repeated steps for Days 0-7 for Days 7-14 of the proliferation assay.
(§9) Particularly, approximately 12 hours before compound treatment, HS-SY-II or SW982 cells were plated at the density of 24,000 cells/well and 7,500 cells/well, respectively in 6-well plates. On day 0, cells were treated with either DMSO or compound starting at 10 μmol/L and decreasing in fourfold dilutions. On day 7, the cells in 6-well plates were trypsinized, counted by TC10 automated cell counter (Bio-Rad, Richmond, Calif.) and replated at the density of 800 cells/well and 250 cells/well for HS-SY-II and SW982, respectively in 96-well plates in triplicate. The cells were allowed to adhere to the plate overnight, and treated with either DMSO or compound as on Day 0. On days 0, 7, 11, and 14, cell viability was determined by CellTiter-Glo® Luminescent Cell Viability Assay (Promega) with EnVision 2103 Multilabel Reader (Perkin-Elmer, Wellesley, Mass.). Compound/media was changed with new one on Day 4 and 11. The ratios of the measured values on Days 7, 11, and 14 to that of day 7 were used to plot proliferation from day 7 to day 14, and to calculate the IC50 values on Day 14. […]

SW982 cells = experiment: as above; assay type: cell-based, human; details: SW982, 14-day long-term proliferation assay
Method: as §1, §2, §3, §4, §5, §6, §7, §8, §9

[1] = system: synovial sarcoma PDX (CTG-0771, CTG-0331); experiment: Tumor volume in mice bearing patient-derived xenografts (PDX) of synovial sarcoma, 35 days; assay type: in vivo; details: oral 125, 250 or 500/400 mg/kg for 35 days
Method: FIGS. 11A and 11C show mean in vivo tumor volumes for athymic nude mice bearing one of two different PDX of synovial sarcoma tumors. FIGS. 11B and 11D show percent survival for mice bearing a PDX. Mice were dosed with either vehicle (oral for 35 days), Compound A (oral: 125 mg/kg, 250 mg/kg, or 500/400 mg/kg for 35 days) or Doxorubicin (iv: 3 mg/kg, once a week for 3 weeks). FIGS. 11A and 11B show data from mice bearing PDX from high-grade spindle cell sarcoma. FIGS. 11C and 11D show data from mice bearing PDX.
Immunocompromised female mice (Taconic; NCr nude) were implanted unilaterally in the flank region with tumor fragments (5 mm×5 mm×5 mm) harvested from donor animals, each implanted from a specific passage lot (CTG-0331 and CTG-0771 at P4). When tumors reached approximately 100-300 mm^3, animals were matched by tumor volume into treatment and control groups and dosing initiated. Vehicle (0.5% NaCMC plus 0.1% Tween 80 in water) or Compound A (500 mg/kg for CTG-0331 and 500 mg/kg decreased to 400 mg/kg on Day 17 for CTG-0771) was administered orally BID at a dose volume of 10 μL/g for 35 days. Tumor size was measured twice weekly. On Day 35, up to 5 mice with the largest tumor burden were euthanized for tumor collection 3 hours after final dose, and flash frozen. […]

[2] = system: HLA genes, Fas, KLRD1 expression in synovial sarcoma PDX tumors; details: 400 mg/kg BID, PDX tumors harvested on day 35
Method: Tumor samples were collected at approximately 3 hours after the last dose from mice used in analysis for PK values and PD alterations. The tumor samples were stored using RNAlater (AM7020, Life technologies). Total RNA isolation and the reverse transcription were performed by RNeasy Mini Kit (74104, Qiagen) and High capacity cDNA Reverse Transcription kit (4368814, Life technologies) according to the manufacturer's instruction. The cDNA samples were used for real time-PCR as described above. The expression levels were adjusted to GAPDH and expressed as fold changes to vehicle control (FIG. 9). Additionally or alternatively, total RNAs were isolated from frozen tumor samples. The TruSeq™ RNA Sample Prep Kit (Illumina) was used to build cDNA library for paired-end sequencing on the Illumina HiSeq (details described in Illumina TruSeq RNA Sample Preparation Guide). […] Paired-end reads from ˜50M clusters per sample were generated using TruSeq SBS kit on the Illumina HiSeq.
Raw sequencing reads in FASTQ format was aligned to human genome hg19 as well as mouse genome mm10. Transcriptomic quantification was carried out with the RSEM v1.1.13 program, using USCS KnownGene transcriptome as reference. […]
The patient-derived xenograft (PDX) models CTG-0331 and CTG-0771 are low passage Champions TumorGraft™ models representing human synovial sarcoma. […] Tumor size was measured twice weekly. […]

In the case of `CCN(c1cc(-c2ccc(CN3CCOCC3)cc2)cc(C(=O)NCc2c(C)cc(C)[nH]c2=O)c1C)C1CCOCC1` [Compound A], the “sensitivity of cell proliferation” value (HS-SY-II cells) is reported as “highly sensitive; also recorded: high sensitivity”, the “sensitivity of cell proliferation” value (SW982 cells) is reported as “are not; also recorded: did not; also recorded: not sensitive” and the tumor volume [1] is reported as “dose-related tumor volume decrease”. The “expression of HLA genes, Fas, and KLRD1 relative to vehicle” value [2] was “increased”.
